# Results: patent publication EP1834669A1, “Use of specific hydrazone compounds for the treatment of viral infections” (Heinrich-Pette-Institut, priority 2006, dated 2007)
# “Also recorded” adds a separate entry of the source. Read-outs that look alike come from different tables or passages of the source.
# Experiments:
# [1] = test system: PBMCs from a healthy donor; assay: Apoptosis assay, FACS with FITC-coupled annexin V; format: cell-based; conditions: 0.4 µM, 12 days
# Protocol: Analysis of cellular toxicity. (A) Cell viability assay. […] (B) Cell-cycle analysis. […] FACS-analysis was performed by DNA-staining with propidiumiodide. (C) Apoptosis-assay.
# Analysis of Cellular Toxicity.
# [2] = test system: HIV-1 BaL; assay: HIV-1 BaL infection of PM1 cells, p24 antigen in supernatant; format: cell-based; conditions: HIV-1 BaL-infected PM1 cells, p24Gag antigen, day 6 and 9 post-infection; dihydrochloride
# Protocol: The culture medium was changed at day 3 and 6 post-infection and the cells were split 1:1. p24^Gag antigen levels and cell viabilities were determined at day 6 and 9 post-infection. The percentage of inhibition of virus replication in the drug-treated cell culture, as compared to the untreated controls is shown in the upper panel. Cell viabilities from the same cultures were determined by alamarBlue™ assay (Serotec) and is shown in the lower panel. (B) Gag-specific Western-blot analysis. […] (C) Analysis of de novo infection. […]
# (§1) PM1 cells were cultured in RPMI 1640 medium containing 10% fetal calf serum (Pansystems GmbH) and antibiotics (penicillin and streptomycin) and infected with the virus strains exactly as described elsewhere (Hauber, I., Bevec, D., Heukeshoven, J., Krätzer, F., Horn, F., Choidas, A., Harrer, T. & Hauber, J. (2005) J. Clin. Invest 115, 76-85). […] At the same time cell viability (measured by alamarBlue™ assay) and p24 antigen levels in the supernatant (Innotest HIV p24 Antigen mAb; Innogenetics N. V.) were determined. […]
# [3] = test system: HIV-1 Rev pathway; assay: HIV-1 gag-pol mRNA export with GPV-RRE / GPV-4xCTE constructs in transfected HeLaCD4-CAT cells; format: cell-based; conditions: 0.4 µM, HeLaCD4-CAT cells cultured 5 days, 48 hours post-transfection
# Source text: Transcripts expressed from GPV-RRE access the CRM1/exporti nuclear export pathway. Messages expressed from GPV-4xCTE are transported across the nuclear envelope via the NXF1/TAP pathway. CMV-IE, cytomegalovirus immediate early promoter; pA, polyadenylation site; SD, splice donor; SA, splice acceptor; RRE, Rev reponse element; CTE, constitutive transport element. […] Likewise, cultures were transfected with GVP-4xCTE, a negative control plasmid (to maintain input DNA levels) and the constitutive internal control vector pBC12/CMV/SEAP. At 48 hours post-transfection cell supernatants were assayed for secreted alkaline phosphatase (SEAP) and p24 antigen levels. In addition, p55^Gag- and α-tubulin-specific (protein loading control) Western-blot analyses were performed from representative cell cultures at […].
# Transfection Experiments and Plasmids. HeLaCD4-CAT cells were transiently transfected using Lipofectamine and Plus reagent according to the manufacturer's protocol (Invitrogen Corp.). […] At 48 hours post-transfection, cellular lysates were prepared and the levels of β-galactosidase (transfection efficiency control) and luciferase were assayed by ELISA (Roche Applied Science) or luminescence (Promega), respectively. […]
# [4] = test system: HIV-1 isolate FE9; assay: Infection of PM1 cells with multidrug-resistant HIV-1 isolate FE9, p24 antigen in supernatant; format: cell-based
# Protocol: Culture medium was changed every third day and cells were split 1:1. Cell viabilities and p24 antigen levels were determined at the indicated days. The percentage of inhibition of virus replication in the drug-treated culture as compared with replication in the untreated control culture is shown in the upper panel. The respective virus growth curves as measured by p24 antigen levels in the culture supernatants are shown in the lower panel. n/a; not applicable. (B) Cellular toxicities were determined in the same cultures by alamarBlue™ assay (Serotec) for metabolic activity.
# HIV-1 Infection Experiments. […]
# as §1
# [5] = test system: eIF-5A; assay: Hypusine modification of eIF-5A, [14C]putrescine labeling, 2D gel electrophoresis and immunoprecipitation; format: cell-based; conditions: 0.4 µM, PM1 and HeLaCD4-CAT cells
# Protocol: Protein separation was performed using equal amounts of radiolabeled extracts, by isoelectric focusing in the first dimension on an immobilized linear pH gradient (IPG) from pH 4.0 to 7.0, which was followed by SDS-PAGE separation in the second dimension. Only molecular mass of < 25.0 kDa is shown in the autoradiographies. Molecular mass standards are indicated in kDa on the right. […] Coomassie blue-staining of the gel served as protein loading control (lower panel).
# Two-Dimensional Gel Electrophoresis and Immunoprecipitation Analysis. […] Gel analysis was performed by autoradiography as previously described (Hauber, I., Bevec, D., Heukeshoven, J., Krätzer, F., Horn, F., Choidas, A., Harrer, T. & Hauber, J. (2005) J. Clin. Invest 115, 76-85). For immunoprecipitation of eIF-5A, 2 x 10^6 HeLaCD4-CAT cells (obtained through the NIH AIDS Research and Reference Reagent Program from B.K.Felber and G.N.Pavlakis) were metabolically labeled as above. The various cellular extracts were prepared and analyzed using a rabbit polyclonal anti-eIF-5A antibody (Schatz, O., Oft, M., Dascher, C., Schebesta, M., Rosorius, O., Jaksche, H., Dobrovnik, M., Bevec, D. & Hauber, J. (1998) Proc. Natl. Acad. Sci. U. S. A 95, 1607-1612) as previously described in detail (Hauber, I., Bevec, D., Heukeshoven, J., Krätzer, F., Horn, F., Choidas, A., Harrer, T. & Hauber, J. (2005) J. Clin. Invest 115, 76-85).
# [6] = target: T1, S-adenosylmethionine decarboxylase (SAMDC) (Homo sapiens, UniProt P17707); conditions: dihydrochloride, cited from earlier work
# T1 sequence (P17707 68-334 limits assumed): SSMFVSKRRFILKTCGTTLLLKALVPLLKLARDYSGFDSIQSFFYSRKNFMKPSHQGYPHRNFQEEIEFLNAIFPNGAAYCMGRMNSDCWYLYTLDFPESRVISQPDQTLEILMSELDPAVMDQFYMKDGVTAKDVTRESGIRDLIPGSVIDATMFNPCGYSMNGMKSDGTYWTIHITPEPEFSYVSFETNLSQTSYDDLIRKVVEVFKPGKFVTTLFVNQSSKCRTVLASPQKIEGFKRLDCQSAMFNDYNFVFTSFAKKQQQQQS
# T1 sequence (P17707 1-67 limits assumed): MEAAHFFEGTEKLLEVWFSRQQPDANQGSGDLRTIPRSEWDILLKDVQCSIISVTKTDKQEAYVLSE
# Sequence of eIF-5A (P63241 whole entry): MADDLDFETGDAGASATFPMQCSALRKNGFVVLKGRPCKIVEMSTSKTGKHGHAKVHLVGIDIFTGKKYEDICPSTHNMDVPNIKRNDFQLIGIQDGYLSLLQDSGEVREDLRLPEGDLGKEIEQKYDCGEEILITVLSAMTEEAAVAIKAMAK
substance,measurement,setting,value
"2-[4-(aminoiminomethyl)-2,3-dihydro-1H-inden-1-ylidene]-hydrazinecarboximidamide dihydrochloride",effects on cell death,[1],did not induce deleterious effects
same,HIV-1 BaL replication,[2],Inhibition of HIV-1 BaL replication; also recorded: pronounced antiviral effects
same,HIV-1 Rev pathway,[3],Specific inhibition
same,formation of progeny viruses,"[4]; PM1 cells infected with multiple HAART-resistant isolate FE9, 0.4 µM, dihydrochloride",Inhibition of a multiple HAART-resistant HIV-1 isolate; also recorded: inhibited
same,virus replication,[4]; applied concentration 0.4 µM,perfectly blocked virus replication
same,hypusine-formation in eIF-5A,[5],prevents hypusine-formation
same,inhibition of SAMDC,[6],potent inhibitor
same,inhibition of SAMDC,"[6]; listed as 2-[4-(aminoiminomethyl)-2,3-dihydro-1H-inden-1-ylidene]-hydrazinecarboximidamide",efficient inhibitor
